In one series the test system is HBV. Kind of series: HepAD38 antiviral assay: reduction of viral product accumulation (virion DNA by qPCR, HBsAg or HBeAg by ELISA). The class given is cell-based, hepatitis B virus. Particulars: HepAD38 cells, five days after compound addition, concentration reducing viral product accumulation by 50% relative to no drug controls, read-out: HepAD38 EC50. An outline of the steps:
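EC50 values represent 50% reduction of viral product accumulation in lysates or supernatants relative to untreated controls, with virion DNA read by qPCR and HBsAg/HBeAg by ELISA. Measurements followed 5 days of treatment, or 8 days with compound renewed on d2 and d5. Cells were tetracycline-depleted HepAD38 at 35,000/well, dosed with a 1:200 dilution of DMSO stocks.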
In general terms: Real-time PCR tracks product formation cycle by cycle.

Series [1] is described as follows: Compound toxicity, ATPLite total ATP levels. Type of series: cell-based. Particulars: human, HepAD38 cells, three days after compound addition, concentration reducing total ATP levels by 50% relative to no drug controls. The method, then:
Methods: HepAD38 cells are maintained as previously reported (Ladner et al, Antimicrob. Agents Chemother. 1997, […], 1715). Briefly, cells are passaged upon attaining confluency in DMEM/F12 media in the presence of 10% FBS, Penn/Strep, 250 μg/mL G418, and 1 ug/ml tetracycline. Novel compounds are screened by first washing cells three times with PBS to remove tetracycline, and plating in 96 well plates at 35,000 cells/well. Compounds dissolved in DMSO are then diluted 1:200 into wells containing cells. Five days after compound addition, material is harvested for analysis. For an extended 8 day analysis, cells are plated and treated as described above, but media and compound are refreshed on d2 and d5 post initial treatment.
Compound toxicity is evaluated by seeding cells at 15,000 cells/well and treating with compound as described above.
(In ATP-based viability assays light output follows the ATP content of the culture.)

Setting [2] is: Hepatitis B virus, HePAD38, 120 h.

Where two headings read alike, the source gives them in different places.

One may read the EC50 as the concentration that produces a half-maximal response. Broadly, the CC50 is the concentration at which the toxic effect on the cells reaches its halfway point. A higher CC50 goes with lower toxicity to the cells. Take `CN(C)C[C@]1(O)CC2CC[C@@H](C1)[C@H]2S(=O)(=O)c1cc(C(=O)Nc2cc(F)c(F)c(F)c2)ccc1Cl` [Example 154]: the EC50 in the series with HBV (setting [2]) was less than 100 nM. Besides, in series [1] (class symbols), the CC50 at 3 days is less than 10000 nM.
On the same counts, the results for `COC(=O)NC1CC2CC[C@@H](C1)[C@H]2S(=O)(=O)c1cc(C(=O)Nc2cc(F)c(F)c(F)c2)ccc1Cl` (stereo partly shown) [Example 321] are less than 100 nM and more than 25000 nM.
As for `CS(=O)(=O)OC[C@@H]1CC2CC[C@@H](C1)[C@H]2S(=O)(=O)c1cc(C(=O)Nc2cc(F)c(F)c(F)c2)ccc1Cl` [Example 293], the EC50 in the series on HBV (setting [2]) is less than 100 nM. Moreover, the CC50 at 3 days in series [1] (numeric bounds) was more than 6250 nM.
In the case of `O=C1NC[C@]2(O1)C1CCC2C[C@@H](S(=O)(=O)c2cc(C(=O)Nc3cc(F)c(F)c(F)c3)ccc2Cl)C1` [Example 260], in the series on HBV (setting [2]), the EC50 was less than 100 nM. This compound also displayed a CC50 at 3 days in series [1] (class symbols) of more than 25000 nM.
On to `O=C(Nc1cc(F)c(F)c(F)c1)c1ccc(Cl)c(S(=O)(=O)[C@H]2CC3CCC(C2)[C@]3(O)c2ncc[nH]2)c1` [Example 302], for which the EC50 in the series on HBV (setting [2]) was less than 100 nM. This compound also came in with a CC50 at 3 days in series [1] (class symbols) of 10000 to 25000 nM.
For `CS(=O)(=O)NC[C@]1(O)CC2CC[C@@H](C1)[C@H]2S(=O)(=O)c1cc(C(=O)Nc2cc(F)c(F)c(F)c2)ccc1Cl` [Example 307], the EC50 in the series on HBV (setting [2]) is less than 100 nM. The CC50 at 3 days in series [1] (class symbols) is more than 25000 nM.
Consider `O=C(Nc1cc(F)c(F)c(F)c1)c1ccc(Cl)c(S(=O)(=O)Cc2cccnc2)c1` [Example 45], for which the EC50 in the series with HBV (setting [2]) was in the range of 100 to 400 nM. In addition, the half-maximal cytotoxic concentration (CC50) at 3 days in series [1] (class symbols) was more than 25000 nM.
For `COC(=O)N1C[C@]2(CC3CC[C@@H](C2)[C@H]3S(=O)(=O)c2cc(C(=O)Nc3cc(F)c(F)c(F)c3)ccc2Cl)OC1=O` [Example 289], the EC50 in the series on HBV (setting [2]) lay within 100 to 400 nM. Besides, the CC50 at 3 days in series [1] (numeric bounds) was more than 12500 nM.
For `N#C[C@]1(CO)CC2CC[C@@H](C1)[C@H]2S(=O)(=O)c1cc(C(=O)Nc2cc(F)c(F)c(F)c2)ccc1Cl` [Example 292], the EC50 in the series on HBV (setting [2]) was less than 100 nM. For the same compound, the CC50 at 3 days in series [1] (class symbols) is 10000 to 25000 nM.
`O=C(Nc1cc(F)c(F)c(F)c1)c1ccc(Cl)c(S(=O)(=O)[C@]2(F)CC[C@H](O)CC2)c1` [Example 8]: the EC50 in the series with HBV (setting [2]) was 100 to 400 nM. Also, the CC50 at 3 days in series [1] (class symbols) fell in the range of 10000 to 25000 nM.
Take `CS(=O)(=O)NC[C@]1(O)C2CCC1C[C@H](S(=O)(=O)c1cc(C(=O)Nc3cc(F)c(F)c(F)c3)ccc1Cl)C2` [Example 273]: the EC50 in the series with HBV (setting [2]) is less than 100 nM. This compound also showed a CC50 at 3 days in series [1] (numeric bounds) of more than 12500 nM.
Consider `O=C(Nc1cc(F)c(F)c(F)c1)c1ccc(Cl)c(S(=O)(=O)[C@H]2C3CCC2C[C@](O)(CO)C3)c1` [Example 60], for which, in the series on HBV (setting [2]), the EC50 is less than 100 nM. For the same compound, the CC50 at 3 days in series [1] (class symbols) is more than 25000 nM.
Turning to `O=C(Nc1cc(F)c(F)c(F)c1)c1ccc(Cl)c(S(=O)(=O)[C@H]2CC[C@H](O)CC2)c1` [Example 3], the 50% effective concentration (EC50) with HBV (setting [2]) lay within 100 to 400 nM. In series [1] (class symbols), this compound returned a CC50 at 3 days of more than 25000 nM.
As for `[N-]=[N+]=NC[C@@H]1CC2CC[C@@H](C1)[C@H]2S(=O)(=O)c1cc(C(=O)Nc2cc(F)c(F)c(F)c2)ccc1Cl` [Example 304], the EC50 in the series on HBV (setting [2]) lay in the range of 100 to 400 nM. The CC50 at 3 days in series [1] (numeric bounds) is more than 6250 nM.
On the same counts, the results for `O=C(Nc1cc(F)c(F)c(F)c1)c1ccc(Cl)c(S(=O)(=O)[C@H]2C3CC[C@H]2C[C@](O)(Cn2cccn2)C3)c1` [Example 313] are less than 100 nM and more than 6250 nM.
Consider `N#CC[C@]1(O)C2CCC1C[C@@H](S(=O)(=O)c1cc(C(=O)Nc3cc(F)c(F)c(F)c3)ccc1Cl)C2` [Example 275], for which the EC50 in the series on HBV (setting [2]) was less than 100 nM. In addition, in series [1] (class symbols), the CC50 at 3 days is more than 25000 nM.
As for `O=C(Nc1cc(F)c(F)c(F)c1)c1ccc(Cl)c(S(=O)(=O)[C@H]2CC3CCC(C2)[C@]3(O)CO)c1` [Example 324], in the series on HBV, the EC50 was less than 100 nM. For the same compound, the CC50 at 3 days in series [1] (numeric bounds) was more than 12500 nM.
As for `O=C(Nc1cc(F)c(F)c(F)c1)c1ccc(Cl)c(S(=O)(=O)[C@H]2CC3CCC(C2)[C@]3(O)c2nccs2)c1` [Example 322], the EC50 with HBV (setting [2]) was less than 100 nM. The compound further yielded a CC50 at 3 days in series [1] (class symbols) of 10000 to 25000 nM.
With `O=C(Nc1cc(F)c(F)c(F)c1)c1ccc(Cl)c(S(=O)(=O)[C@H]2C3CC[C@H]2C[C@H](Cn2ccnc2)C3)c1` [Example 312], the EC50 in the series with HBV (setting [2]) is less than 100 nM. For the same compound, the CC50 at 3 days in series [1] (class symbols) was 10000 to 25000 nM.
`CC(=O)NC[C@@]1(O)CC2CC[C@@H](C1)[C@H]2S(=O)(=O)c1cc(C(=O)Nc2cc(F)c(F)c(F)c2)ccc1Cl` [Example 280]: the EC50 with HBV (setting [2]) was 100 to 400 nM. The compound further gave a CC50 at 3 days in series [1] (class symbols) of more than 25000 nM.
On the same counts, the results for `O=C(Nc1cc(F)c(F)c(F)c1)c1ccc(Cl)c(S(=O)(=O)[C@H]2C3CC[C@H]2C[C@](O)(COCc2ccccn2)C3)c1` [Example 317] are less than 100 nM and less than 10000 nM.
On the same counts, the results for `O=C(Nc1cc(F)c(F)c(F)c1)c1ccc(Cl)c(S(=O)(=O)[C@H]2CC3CCC(C2)[C@]3(O)Cc2nnn[nH]2)c1` [Example 276] are more than 400 nM and more than 25000 nM.
Consider `NC1CC2CC[C@@H](C1)[C@H]2S(=O)(=O)c1cc(C(=O)Nc2cc(F)c(F)c(F)c2)ccc1Cl` (stereo partly shown) [Example 298], for which, in the series on HBV (setting [2]), the EC50 was in the range of 100 to 400 nM. Besides, in series [1] (class symbols), the CC50 at 3 days was in the range of 10000 to 25000 nM.
As to `Cn1ccnc1[C@]1(O)CC2CC[C@@H](C1)[C@H]2S(=O)(=O)c1cc(C(=O)Nc2cc(F)c(F)c(F)c2)ccc1Cl` [Example 329], the EC50 in the series on HBV (setting [2]) was less than 100 nM. The compound further had a CC50 at 3 days in series [1] (numeric bounds) of more than 6250 nM.
As for `O=C(Nc1cc(F)c(F)c(F)c1)c1ccc(Cl)c(S(=O)(=O)[C@H]2CC3CCC(C2)[C@H]3c2ncc[nH]2)c1` [Example 303], the EC50 in the series with HBV (setting [2]) was less than 100 nM. In series [1] (class symbols), the CC50 at 3 days was less than 10000 nM.
Taken in the same sequence, the figures for `O=C(Nc1cc(F)c(F)c(F)c1)c1ccc(Cl)c(S(=O)(=O)Cc2ccncc2)c1` [Example 46] were 100 to 400 nM and more than 25000 nM.
Take `CS(=O)(=O)NC1CC2CC[C@@H](C1)[C@H]2S(=O)(=O)c1cc(C(=O)Nc2cc(F)c(F)c(F)c2)ccc1Cl` (stereo partly shown) [Example 299]: the EC50 in the series with HBV (setting [2]) was less than 100 nM. In series [1] (class symbols), this compound displayed a CC50 at 3 days of more than 25000 nM.
On the same counts, the results for `O=C(Nc1cc(F)c(F)c(F)c1)c1ccc(Cl)c(S(=O)(=O)[C@H]2C3CC[C@H]2C[C@@](O)(CNS(=O)(=O)C2CC2)C3)c1` [Example 279] are 100 to 400 nM and more than 25000 nM.
As for `O=C(Nc1cc(F)c(F)c(F)c1)c1ccc(Cl)c(S(=O)(=O)[C@H]2CC3CCC(C2)[C@]3(O)CNS(=O)(=O)c2cccnc2)c1` [Example 295], the EC50 with HBV (setting [2]) is less than 100 nM. Also, the CC50 at 3 days in series [1] (numeric bounds) is more than 12500 nM.
On to `[N-]=[N+]=NC[C@]1(O)CC2CC[C@@H](C1)[C@H]2S(=O)(=O)c1cc(C(=O)Nc2cc(F)c(F)c(F)c2)ccc1Cl` [Example 286], for which the EC50 in the series with HBV (setting [2]) is less than 100 nM. This compound also came in with a CC50 at 3 days in series [1] (class symbols) of 10000 to 25000 nM.
On to `O=C(Nc1cc(F)c(F)c(F)c1)c1ccc(Cl)c(S(=O)(=O)[C@H]2CC3CCC(C2)[C@]3(O)Cn2cccn2)c1` [Example 256], for which the EC50 in the series with HBV (setting [2]) is less than 100 nM. In addition, in series [1] (numeric bounds), the CC50 at 3 days was more than 12500 nM.
Taken in the same sequence, the figures for `CC[C@]1(O)C2CCC1C[C@@H](S(=O)(=O)c1cc(C(=O)Nc3cc(F)c(F)c(F)c3)ccc1Cl)C2` [Example 252] were less than 100 nM and more than 6250 nM.

These data come from patent US10538532B2, “Hepatitis B antiviral agents” (ENANTA PHARMACEUTICALS, INC., priority 2016, dated 2020).
